From the NIST ThermoML archive (doi:10.1016/j.jct.2018.08.005)
± gives the expanded uncertainty stated by the source.

Test: xn = mol fraction of the nth substance listed
Conditions: Liquid; for mass density: Vibrating tube method; for speed of sound: Frequency=3 MHz, Pulse-echo method

CCOC(F)(C(F)(F)C(F)(F)C(F)(F)F)C(F)(C(F)(F)F)C(F)(F)F (stereo not given) [2-trifluoromethyl-3-ethoxydodecafluorohexane] + CC(C)OC(C)C
Conditions	mass density, x1 = 0.25 [kg/m3]	mass density, x1 = 0.375 [kg/m3]	mass density, x1 = 0.5 [kg/m3]	mass density, x1 = 0.625 [kg/m3]	mass density, x1 = 0.75 [kg/m3]	speed of sound, x1 = 0.25 [m/s]	speed of sound, x1 = 0.375 [m/s]	speed of sound, x1 = 0.5 [m/s]	speed of sound, x1 = 0.625 [m/s]	speed of sound, x1 = 0.75 [m/s]
313.15 K, 50000 kPa	–	–	–	1451.1 ± 1.3	1541 ± 1.5	–	–	–	–	–
313.15 K, 60000 kPa	1111.4 ± 0.8	1244.1 ± 1	1360.5 ± 1.2	1464.9 ± 1.5	1555.4 ± 1.7	1065.1 ± 2.2	1009.2 ± 2.2	967.9 ± 2.2	946.8 ± 2.2	921.7 ± 2.2
313.15 K, 70000 kPa	1121.5 ± 0.9	1255 ± 1.1	1372.6 ± 1.4	1477.7 ± 1.7	1568.7 ± 2	–	–	–	–	–
313.15 K, 80000 kPa	1130.9 ± 0.9	1265.4 ± 1.2	1383.8 ± 1.5	1489.6 ± 1.9	1581.1 ± 2.2	1141.4 ± 2.2	1082.8 ± 2.2	1039.3 ± 2.2	1017.4 ± 2.2	990.1 ± 2.2
313.15 K, 90000 kPa	1139.7 ± 1	1275.3 ± 1.3	1394.3 ± 1.7	1500.7 ± 2.1	1592.6 ± 2.5	–	–	–	–	–
313.15 K, 100000 kPa	1148 ± 1	1284.4 ± 1.4	1404.2 ± 1.9	1511.1 ± 2.4	1603.5 ± 2.8	1209.6 ± 2.2	1148.8 ± 2.2	1102.9 ± 2.2	1079.9 ± 2.2	1050.9 ± 2.2
313.15 K, 110000 kPa	1156 ± 1.1	1293.2 ± 1.6	1413.7 ± 2.1	1521.2 ± 2.6	1614 ± 3	–	–	–	–	–
313.15 K, 120000 kPa	1163.3 ± 1.1	1301.3 ± 1.7	1422.4 ± 2.3	1530.6 ± 2.9	1623.6 ± 3.3	–	–	–	–	–
313.15 K, 130000 kPa	1170.4 ± 1.2	1309.4 ± 1.9	1431 ± 2.5	1539.5 ± 3.1	1633 ± 3.6	–	–	–	–	–
313.15 K, 140000 kPa	1177.2 ± 1.3	1316.8 ± 2	1439 ± 2.7	1548.1 ± 3.4	1641.9 ± 3.9	–	–	–	–	–
323.15 K, 100 kPa	1006.7 ± 0.8	1127.2 ± 0.8	1235 ± 0.8	1332.2 ± 0.8	1418.1 ± 0.8	693.3 ± 2.2	650 ± 2.2	624.3 ± 2.2	609.9 ± 2.2	597.4 ± 2.2
323.15 K, 10000 kPa	1029 ± 0.8	1152.3 ± 0.8	1262 ± 0.8	1360.8 ± 0.8	1447.4 ± 0.8	–	–	–	–	–
323.15 K, 20000 kPa	1047.5 ± 0.8	1173 ± 0.8	1284.2 ± 0.8	1384.2 ± 0.9	1471.7 ± 0.9	841.6 ± 2.2	794.7 ± 2.2	761.3 ± 2.2	745.2 ± 2.2	726.1 ± 2.2
323.15 K, 30000 kPa	1063.3 ± 0.8	1190.5 ± 0.8	1303.2 ± 0.9	1404.3 ± 1	1492.5 ± 1.1	–	–	–	–	–
323.15 K, 40000 kPa	1077.2 ± 0.8	1206.1 ± 0.9	1319.9 ± 1	1421.9 ± 1.1	1510.7 ± 1.2	952.5 ± 2.2	901 ± 2.2	862.9 ± 2.2	846.1 ± 2.2	822.8 ± 2.2
323.15 K, 50000 kPa	1089.7 ± 0.8	1220 ± 0.9	1334.9 ± 1.1	1437.6 ± 1.3	1527.2 ± 1.4	–	–	–	–	–
323.15 K, 60000 kPa	1101 ± 0.8	1232.6 ± 1	1348.5 ± 1.2	1452 ± 1.4	1542.2 ± 1.7	1043.6 ± 2.2	987.7 ± 2.2	946.9 ± 2.2	927.8 ± 2.2	902.5 ± 2.1
323.15 K, 70000 kPa	1111.5 ± 0.9	1244.2 ± 1.1	1361 ± 1.3	1465.1 ± 1.6	1555.9 ± 1.9	–	–	–	–	–
323.15 K, 80000 kPa	1121.1 ± 0.9	1255 ± 1.2	1372.5 ± 1.5	1477.3 ± 1.9	1568.7 ± 2.2	1123.2 ± 2.2	1063 ± 2.2	1019.6 ± 2.2	998.6 ± 2.2	971.8 ± 2.2
323.15 K, 90000 kPa	1130.2 ± 0.9	1265.1 ± 1.3	1383.4 ± 1.7	1488.8 ± 2.1	1580.6 ± 2.4	–	–	–	–	–
323.15 K, 100000 kPa	1138.8 ± 1	1274.5 ± 1.4	1393.7 ± 1.9	1499.6 ± 2.3	1591.9 ± 2.7	1193.8 ± 2.2	1129.2 ± 2.2	1084.4 ± 2.2	1061.6 ± 2.2	1033.7 ± 2.2
323.15 K, 110000 kPa	1146.9 ± 1	1283.5 ± 1.5	1403.2 ± 2.1	1509.8 ± 2.6	1602.5 ± 3	–	–	–	–	–
323.15 K, 120000 kPa	1154.5 ± 1.1	1291.9 ± 1.7	1412.4 ± 2.3	1519.5 ± 2.8	1612.5 ± 3.3	–	–	–	–	–
323.15 K, 130000 kPa	1161.7 ± 1.2	1299.9 ± 1.8	1421.1 ± 2.5	1528.7 ± 3	1622.1 ± 3.6	–	–	–	–	–
323.15 K, 140000 kPa	1168.7 ± 1.2	1307.7 ± 2	1429.4 ± 2.7	1537.4 ± 3.3	1631.3 ± 3.9	–	–	–	–	–
333.15 K, 100 kPa	990.5 ± 0.8	1109.5 ± 0.8	1216.5 ± 0.8	1312.3 ± 0.8	1397.5 ± 0.8	659.8 ± 2.2	617.9 ± 2.2	593.4 ± 2.2	579.9 ± 2.2	568.6 ± 2.2
333.15 K, 10000 kPa	1014.9 ± 0.8	1137 ± 0.8	1245.9 ± 0.8	1343.3 ± 0.8	1429.3 ± 0.8	–	–	–	–	–
333.15 K, 20000 kPa	1034.7 ± 0.8	1159.2 ± 0.8	1269.8 ± 0.8	1368.5 ± 0.9	1455.3 ± 0.9	816 ± 2.2	769.7 ± 2.2	737.4 ± 2.2	720.8 ± 2.2	703.1 ± 2.2
333.15 K, 30000 kPa	1051.5 ± 0.8	1177.9 ± 0.8	1290 ± 0.9	1389.8 ± 1	1477.3 ± 1.1	–	–	–	–	–
333.15 K, 40000 kPa	1066.2 ± 0.8	1194.2 ± 0.9	1307.5 ± 1	1408.4 ± 1.1	1496.6 ± 1.2	930.9 ± 2.2	878.9 ± 2.2	842 ± 2.2	823.8 ± 2.2	802.8 ± 2.1
333.15 K, 50000 kPa	1079.3 ± 0.8	1208.8 ± 0.9	1323.2 ± 1.1	1424.9 ± 1.2	1513.8 ± 1.4	–	–	–	–	–
333.15 K, 60000 kPa	1091.1 ± 0.8	1222 ± 1	1337.3 ± 1.2	1439.9 ± 1.4	1529.4 ± 1.6	1024.9 ± 2.2	968.2 ± 2.2	927.8 ± 2.2	907.5 ± 2.2	884.3 ± 2.1
333.15 K, 70000 kPa	1101.9 ± 0.8	1234 ± 1.1	1350.3 ± 1.3	1453.7 ± 1.6	1543.7 ± 1.9	–	–	–	–	–
333.15 K, 80000 kPa	1112 ± 0.9	1244.9 ± 1.1	1362.3 ± 1.5	1466.4 ± 1.8	1556.9 ± 2.1	1106.8 ± 2.2	1044.5 ± 2.2	1001.6 ± 2.2	980 ± 2.2	954.4 ± 2.1
333.15 K, 90000 kPa	1121.4 ± 0.9	1255.4 ± 1.2	1373.5 ± 1.6	1478.4 ± 2	1569.3 ± 2.4	–	–	–	–	–
333.15 K, 100000 kPa	1130.3 ± 1	1265.1 ± 1.4	1384 ± 1.8	1489.4 ± 2.3	–	–	1111.7 ± 2.2	1067.2 ± 2.2	1043.9 ± 2.2	1016.8 ± 2.1
